Counter-ions that a name gives are not always drawn. Like-named read-outs stand apart in the source and are kept apart here.
Tests used:
Assay type in all cases: biochemical
[1] = target: T1, EcoVRS (valyl-tRNA synthetase from Escherichia coli) (Escherichia coli, UniProt P07118); experiment: aaRS aminoacylation assay (ATP consumption), EcoVRS; conditions: i.a. = inactive at a concentration below 50 uM
T1 construct: made in house; host or cells: Escherichia coli M15
Procedure: (§1) The compounds have been tested for antibacterial activity in vitro as aminoacyl-tRNA synthetases (aaRS) inhibitors following the following process.
(§2) Leucyl-, valyl- and isoleucyl-tRNA synthetases (LRS, VRS and IRS, respectively) from Escherichia coli (Eco) and Staphylococcus aureus (Sau).
(§3) Escherichia coli M15 cells transformed with plasmid pQE-60, or pQE-70, containing the open-reading frame sequence of one targeted aaRS were induced with 1 mM IPTG (Isopropyl β-D-1-thiogalactopyranoside) for 3 h at 37° C. Bacterial cells were harvested and lysed with 20 mM NaH2PO4 (pH 8.0), 200 mM NaCl, 10 mM imidazole and protease inhibitor cocktail (Roche). Pathogenic aaRS was purified by nickel affinity standard chromatography. Protein concentration was determined by spectrophotometry.
(§4) tRNA^Leu, tRNA^Val and tRNA^Ile from E. coli and S. aureus were transcribed in vitro for 4 h at 37° C. using T7 RNA polymerase. Transcription reaction contained 40 mM Tris-HCl (pH 8.0), 22 mM MgCl2, 1 mM spermidine, 5 mM DTT, 0.01% Triton X-100, 4 mM GTP, 4 mM ATP, 4 mM UTP, 4 mM CTP, 16 mM GMP, […] T7 RNA polymerase and 150 μg BstNI digested plasmid. Once finished, the reaction was applied on a 6% polyacrylamide-8 M urea denaturing gel to purify the transcribed tRNA and discard any impurities. Purified tRNA was quantified with Nanodrop 2000 (Thermo Scientific).
(§5) The aminoacylation reaction catalyzed by aminoacyl-tRNA synthetases (aaRS) takes place in two steps. In the first step, aaRS activates its cognate amino acid with ATP; and in the second step the activated amino acid is loaded to its corresponding tRNA. This reaction can be summarized as follows: ARS+aa+ATP=ARS-aa-AMP+PPi ARS-aa-AMP+tRNA=aa-tRNA+AMP+ARS [2] (ARS, Aminoacyl-tRNA synthetase; aa, amino acid; ARS-aa-AMP, enzyme-bound to aminoacyl-adenylate; aa-tRNA, aminoacyl-tRNA).
(§6) The activity of the pathogenic aaRSs was monitored by measuring the ATP consumption rate, since this consumption is directly proportional to the activity of the aaRS. If the tested compound, at a single point concentration of 50 μM, is inhibiting the aminoacylation reaction, there is a decrease in the ATP consumption, compared to the control reaction without compound, allowing the calculation of an inhibition ratio.
(§7) When the inhibition ratio for a given compound was above 80%, IC50 determination was performed with the same enzymatic assay (using the commercial kit Kinase RR from BioThema AB, Sweden) in the presence of serial dilutions of inhibitor. Known inhibitors of LRS, VRS or IRS were used as a positive control of the assay. The IC50 was calculated based on nonlinear regression analysis.

[2] = target: T2, EcoLRS (leucyl-tRNA synthetase from Escherichia coli) (Escherichia coli, UniProt P07813); experiment: aaRS aminoacylation assay (ATP consumption), EcoLRS
T2 construct: made in house; host or cells: Escherichia coli M15
T2 sequence (P07813 whole entry): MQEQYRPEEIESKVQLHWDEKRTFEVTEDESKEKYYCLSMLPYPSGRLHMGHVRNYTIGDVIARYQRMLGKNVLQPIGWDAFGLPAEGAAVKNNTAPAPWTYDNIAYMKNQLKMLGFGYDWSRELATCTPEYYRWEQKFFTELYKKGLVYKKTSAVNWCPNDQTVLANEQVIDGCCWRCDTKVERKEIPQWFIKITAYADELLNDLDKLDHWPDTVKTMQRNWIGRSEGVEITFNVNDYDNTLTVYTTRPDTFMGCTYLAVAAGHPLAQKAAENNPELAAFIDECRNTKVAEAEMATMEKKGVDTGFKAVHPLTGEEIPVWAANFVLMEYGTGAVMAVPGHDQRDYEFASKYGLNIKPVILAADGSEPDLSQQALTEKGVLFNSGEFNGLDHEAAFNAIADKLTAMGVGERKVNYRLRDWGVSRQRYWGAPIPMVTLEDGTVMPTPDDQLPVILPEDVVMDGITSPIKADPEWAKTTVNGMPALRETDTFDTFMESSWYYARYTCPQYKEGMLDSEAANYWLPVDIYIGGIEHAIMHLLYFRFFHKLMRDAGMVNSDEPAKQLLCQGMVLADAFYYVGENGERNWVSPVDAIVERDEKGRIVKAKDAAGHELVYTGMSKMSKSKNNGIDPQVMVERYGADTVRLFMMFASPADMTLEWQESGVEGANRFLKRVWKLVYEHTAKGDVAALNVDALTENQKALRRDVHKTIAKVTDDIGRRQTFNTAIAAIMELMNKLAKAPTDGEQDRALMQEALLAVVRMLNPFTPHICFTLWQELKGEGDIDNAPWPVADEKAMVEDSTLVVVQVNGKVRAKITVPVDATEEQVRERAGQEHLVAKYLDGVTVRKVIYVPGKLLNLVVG
Procedure: as §1, §2, §3, §4, §5, §6, §7

[3] = target: T3, SauLRS (leucyl-tRNA synthetase from Staphylococcus aureus) (Staphylococcus aureus, UniProt Q2FXH2); experiment: aaRS aminoacylation assay (ATP consumption), SauLRS; conditions: i.a. = inactive at a concentration below 50 uM; for IC50: read-out: IC50 SauLRS
T3 construct: made in house; host or cells: Escherichia coli M15
T3 sequence (Q2FXH2 1-805): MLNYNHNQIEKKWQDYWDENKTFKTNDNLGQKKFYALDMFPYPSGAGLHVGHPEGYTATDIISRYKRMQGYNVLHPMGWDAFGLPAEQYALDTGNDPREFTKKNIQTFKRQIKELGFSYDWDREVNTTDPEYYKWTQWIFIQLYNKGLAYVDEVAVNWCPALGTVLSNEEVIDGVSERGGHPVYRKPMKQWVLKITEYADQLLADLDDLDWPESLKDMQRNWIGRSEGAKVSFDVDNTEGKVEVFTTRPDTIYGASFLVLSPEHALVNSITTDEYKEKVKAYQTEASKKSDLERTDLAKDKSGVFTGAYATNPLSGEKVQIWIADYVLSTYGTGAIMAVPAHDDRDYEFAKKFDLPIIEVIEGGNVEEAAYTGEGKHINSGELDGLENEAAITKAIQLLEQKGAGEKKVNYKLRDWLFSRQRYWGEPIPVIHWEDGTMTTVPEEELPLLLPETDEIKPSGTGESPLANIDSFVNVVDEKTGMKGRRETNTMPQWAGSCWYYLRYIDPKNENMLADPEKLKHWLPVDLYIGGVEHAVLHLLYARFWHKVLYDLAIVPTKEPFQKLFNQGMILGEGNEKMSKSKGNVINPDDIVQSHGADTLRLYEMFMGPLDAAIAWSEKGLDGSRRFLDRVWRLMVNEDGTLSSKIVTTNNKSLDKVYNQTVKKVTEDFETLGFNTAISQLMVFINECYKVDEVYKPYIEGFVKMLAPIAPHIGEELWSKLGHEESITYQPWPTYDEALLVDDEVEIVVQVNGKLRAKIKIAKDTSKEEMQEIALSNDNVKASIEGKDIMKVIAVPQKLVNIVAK
Procedure: as §1, §2, §3, §4, §5, §6, §7

T1 sequence (P07118 whole entry): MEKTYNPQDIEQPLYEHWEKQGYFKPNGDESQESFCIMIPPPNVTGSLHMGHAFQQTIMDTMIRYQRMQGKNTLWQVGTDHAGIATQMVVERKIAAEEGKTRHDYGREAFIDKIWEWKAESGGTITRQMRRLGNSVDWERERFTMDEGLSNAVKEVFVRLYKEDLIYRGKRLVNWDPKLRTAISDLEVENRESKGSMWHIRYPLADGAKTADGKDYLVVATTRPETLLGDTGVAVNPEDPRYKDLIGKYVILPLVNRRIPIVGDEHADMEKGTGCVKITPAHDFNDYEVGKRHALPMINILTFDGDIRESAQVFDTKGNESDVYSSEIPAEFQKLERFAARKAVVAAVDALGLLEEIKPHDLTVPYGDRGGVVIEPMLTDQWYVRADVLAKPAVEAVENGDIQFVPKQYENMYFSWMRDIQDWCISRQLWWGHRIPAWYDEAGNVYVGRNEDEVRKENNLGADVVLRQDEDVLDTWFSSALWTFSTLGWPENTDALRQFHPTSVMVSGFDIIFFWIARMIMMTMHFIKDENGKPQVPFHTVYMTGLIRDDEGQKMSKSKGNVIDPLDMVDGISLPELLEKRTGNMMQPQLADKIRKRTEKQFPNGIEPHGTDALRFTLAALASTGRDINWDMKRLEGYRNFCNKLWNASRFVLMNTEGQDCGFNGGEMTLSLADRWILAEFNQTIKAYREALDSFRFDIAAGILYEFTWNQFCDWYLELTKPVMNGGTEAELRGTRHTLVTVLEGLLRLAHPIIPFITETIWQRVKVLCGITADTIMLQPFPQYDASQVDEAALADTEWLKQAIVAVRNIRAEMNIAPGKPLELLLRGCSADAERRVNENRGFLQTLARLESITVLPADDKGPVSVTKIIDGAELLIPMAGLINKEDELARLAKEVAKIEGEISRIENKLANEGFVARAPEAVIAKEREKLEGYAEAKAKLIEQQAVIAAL

SMILES	IC50 EcoVRS [1]	IC50 ([2]; i.a. = inactive at a concentration below 50 uM, read-out: IC50 EcoLRS) [µM]	IC50 [3] [µM]	IC50 [2] [µM]	IC50 SauLRS [3]	IC50 EcoLRS ([2]; i.a. = inactive at a concentration below 50 uM)
CC(C)C[C@H](N)C(=O)NS(=O)(=O)c1ccccc1 [Compound 5.1, (S)-2-amino-4-methyl-N-(phenylsulfonyl)pentanamide hydrochloride]	i.a.	0.035	5.4			
CC(C)C[C@H](N)C(=O)NS(=O)(=O)c1cccc(Cl)c1 [Compound 5.4]	i.a		0.92	0.031		
CC(C)C[C@H](N)C(=O)NS(=O)(=O)c1ccccc1Cl [Compound 5.5]	i.a		13.2	0.121		
CC(C)C[C@H](N)C(=O)NS(=O)(=O)c1ccccc1F [Compound 5.6]	i.a		17	0.233		
CCCCc1ccc(S(=O)(=O)NC(=O)[C@@H](N)CC(C)C)cc1 [Compound 5.7]	i.a		4.9	0.668		
CC(C)C[C@H](N)C(=O)NS(=O)(=O)c1cccc2ccccc12 [Compound 5.13]	i.a		16.1	0.059		
CC(C)C[C@H](N)C(=O)NS(=O)(=O)c1cccc2c(N(C)C)cccc12 [Compound 5.16, (S)-2-amino-N-((5-(dimethylamino)naphthalen-1-yl)sulfonyl)-4-methylpentanamide hydrochloride]	i.a			4.1	i.a	
CC(C)C[C@H](N)C(=O)NS(=O)(=O)c1cccc2cccnc12 [Compound 5.19]	i.a		16.8	0.78		
CC(C)C[C@H](N)C(=O)NS(=O)(=O)c1ccc(Br)c2ccncc12 [Compound 5.22, trifluoroacetate]	i.a		11.5	2.4		
CC(C)C[C@H](N)C(=O)NS(=O)(=O)c1cccc2cc(C(N)=O)ncc12 [Compound 5.24, 8-(N-(L-Leucyl)sulfamoyl)isoquinoline-3-carboxamide]	i.a		8.5	0.011		
CC(C)C[C@H](N)C(=O)NS(=O)(=O)c1cccc2c1CNCC2 [Compound 5.26, (S)-2-amino-4-methyl-N-((1,2,3,4-tetrahydroisoquinolin-8-yl)sulfonyl) pentanamide trifluoroacetate]	i.a		20	0.176		
CNc1cc(-c2cccc(S(=O)(=O)NC(=O)[C@@H](N)CC(C)C)c2)nc(N)n1 [Compound 5.27]	i.a		0.26	0.051		
CC(C)C[C@H](N)C(=O)NS(=O)(=O)c1cccc(-c2cc(N(C)C)nc(N)n2)c1 [Compound 5.28]	i.a		4.8	1.6		
CSc1cc(-c2cccc(S(=O)(=O)NC(=O)[C@@H](N)CC(C)C)c2)nc(N)n1 [Compound 5.29]	i.a		1.2	0.021		
Cc1cc(-c2cccc(S(=O)(=O)NC(=O)[C@@H](N)CC3CCC3)c2)nc(N)n1 [Compound 5.31]	i.a			6.2	i.a	
Cc1cc(-c2cccc(S(=O)(=O)NC(=O)[C@@H](N)CC3CCCCC3)c2)nc(N)n1 [Compound 5.34]	i.a				i.a	i.a
CC(C)C[C@H](N)C(=O)NS(=O)(=O)c1cccc(-c2cc(N)ncn2)c1 [Compound 5.46]	i.a.		1.3	0.01		
CCc1cc(-c2cccc(S(=O)(=O)NC(=O)[C@@H](N)CC(C)C)c2)nc(N)n1 [Compound 5.47]	i.a.		2.15	0.011		
CC(C)C[C@H](N)C(=O)NS(=O)(=O)c1cccc(-c2ncnc(N)n2)c1 [Compound 5.48]	i.a.		0.53	0.0034		

From US11072581B2, “N-acyl-arylsulfonamide derivatives as aminoacyl-tRNA synthetase inhibitors” (Oxford Drug Design Limited, priority 2015, dated 2021)
